Measured values reported in patent publication US10668040B2, “Treatment of urea cycle disorders in neonates and infants” (Horizon Therapeutics, LLC, priority 2017, dated 2020).

Test system: UCD patients
Test: Example 3: TEAEs, serious and non-serious adverse events
Assay type: in vivo
Text: Sixteen newborn infants aged 0 to 27 days, and 10 infants and toddlers aged 28 days to 23 months received RAVICTI Oral Liquid administered just prior to breastfeeding or intake of formula or food. The recommended dosing regimen was 3-6 times per day depending on feeding schedule.
Number of Subjects with Treatment-Emergent Adverse Events (TEAEs), Serious TEAEs, Deaths, and Discontinuations Due to TEAEs
An adverse event (AE) is any untoward medical occurrence, whether or not the event is considered related to the study drug. A serious AE is any AE that: results in death; is life threatening; requires hospitalization or prolongation of existing hospitalization; results in disability/incapacity; is a congenital anomaly/birth defect; is an important medical event. TEAEs are defined as AEs with an onset date on or after the first dose of study medication until study discontinuation. The Investigator assessed the causal relationship of each TEAE to the study drug as not related, possibly related, or probably related. From the first dose of study treatment through 30 days after the final dose (mean [SD] duration of treatment was 9.13 [6.838] months).

[1] = Non-serious adverse events, Age 0 to <2 Months
[2] = Non-serious adverse events, Age 2 Months to <2 Years
[3] = aged 0 to 2 months, 16 analyzed
[4] = aged 2 months and up to 2 years, 10 analyzed

O=C(CCCc1ccccc1)OCC(COC(=O)CCCc1ccccc1)OC(=O)CCCc1ccccc1 [RAVICTI, benzenebutanoic acid, 1′,1″-(1,2,3-propanetriyl) ester]
0/10 (0.00%): Respiratory syncytial virus infection, Subjects Affected/Exposed (in vivo) | Rhinovirus infection, Subjects Affected/Exposed (in vivo) | Serious AE Respiratory syncytial virus infection: Subjects Affected/Exposed (in vivo)
Ten: Subjects with one or more related TEAE [3]
6: Rash, Occurrences (all) [1] | Upper respiratory tract infection, Occurrences (all) [2]
6 subjects: Subjects with one or more serious TEAE [4]
0/1: Serious AE Rhinovirus infection: Occurrences causally related to treatment/all (in vivo)
One: Subjects with fatal outcome TEAE [4]
12: Vomiting, Occurrences (all) [1]
no fatal outcome TEAEs: Subjects with fatal outcome TEAE [3]
1: Irritability, Occurrences (all) [1] | Lethargy, Occurrences (all) [1] | Leukocytosis, Occurrences (all) [1] | Lower respiratory tract infection, Occurrences (all) [1] | Lymphocytosis, Occurrences (all) [1] | Medical device site haemorrhage, Occurrences (all) [1] | Microcytic anaemia, Occurrences (all) [1] | Musculoskeletal and connective tissue Disorders (Torticollis), Occurrences (all) [1] | Nephrolithiasis, Occurrences (all) [1] | Neutropenia, Occurrences (all) [1] | Ocular hyperaemia, Occurrences (all) [1] | Otitis media acute, Occurrences (all) [1] | Otitis media, Occurrences (all) [1] | Platelet count increased, Occurrences (all) [1] | Pneumothorax, Occurrences (all) [1] | Post-tussive vomiting, Occurrences (all) [1] | Red man syndrome, Occurrences (all) [1] | Respiratory syncytial virus infection, Occurrences (all) [1] | Rhinovirus infection, Occurrences (all) [1] | Sinusitis, Occurrences (all) [1] | Stoma site reaction, Occurrences (all) [1] | Tachypnoea, Occurrences (all) [1] | Transaminases increased, Occurrences (all) [1] | Tremor, Occurrences (all) [1] | Use of accessory respiratory muscles, Occurrences (all) [1] | Viral infection, Occurrences (all) [1] | Weight decreased, Occurrences (all) [1] | Amino acid level decreased, Occurrences (all) [2] | Ammonia increased, Occurrences (all) [2] | Anaemia, Occurrences (all) [2] | Apnoea, Occurrences (all) [2] | Carbon dioxide decreased, Occurrences (all) [2] | Conjunctivitis, Occurrences (all) [2] | Croup infectious, Occurrences (all) [2] | Dacryostenosis congenital, Occurrences (all) [2] | Dermatitis diaper, Occurrences (all) [2] | Diarrhoea, Occurrences (all) [2] | Ear and labyrinth disorders (Excessive cerumen production), Occurrences (all) [2] | Eczema, Occurrences (all) [2] | Gross motor delay, Occurrences (all) [2] | Immune System Disorders (Seasonal allergy), Occurrences (all) [2] | Nail ridging, Occurrences (all) [2] | Nasal congestion, Occurrences (all) [2] | Pharyngitis, Occurrences (all) [2] | Pneumonia, Occurrences (all) [2] | Respiratory disorder, Occurrences (all) [2] | Rhinorrhoea, Occurrences (all) [2] | Seborrhoeic dermatitis, Occurrences (all) [2] | Stoma site reaction, Occurrences (all) [2] | Teething, Occurrences (all) [2] | Tibia fracture, Occurrences (all) [2] | Urinary tract infection, Occurrences (all) [2] | Vesicoureteric reflux, Occurrences (all) [2] | Viral infection, Occurrences (all) [2]
1/10 (10.00%): Serious AE Rhinovirus infection: Subjects Affected/Exposed (in vivo)
5: Vomiting, Occurrences (all) [2]
0: Nail ridging, Occurrences (all) [1] | Pharyngitis, Occurrences (all) [1] | Pneumonia, Occurrences (all) [1] | Respiratory disorder, Occurrences (all) [1] | Rhinorrhoea, Occurrences (all) [1] | Tibia fracture, Occurrences (all) [1] | Vascular disorders (Venous thrombosis limb), Occurrences (all) [1] | Vesicoureteric reflux, Occurrences (all) [1] | Agitation, Occurrences (all) [2] | Alanine aminotransferase increased, Occurrences (all) [2] | Amino acid level increased, Occurrences (all) [2] | Angular cheilitis, Occurrences (all) [2] | Anion gap increased, Occurrences (all) [2] | Arthropod bite, Occurrences (all) [2] | Aspartate aminotransferase increased, Occurrences (all) [2] | Blood bicarbonate decreased, Occurrences (all) [2] | Blood urea decreased, Occurrences (all) [2] | Body height below normal, Occurrences (all) [2] | Candida infection, Occurrences (all) [2] | Cardiac disorders (Tachycardia), Occurrences (all) [2] | Catheter site rash, Occurrences (all) [2] | Decreased appetite, Occurrences (all) [2] | Dehydration, Occurrences (all) [2] | Device occlusion, Occurrences (all) [2] | Drug withdrawal syndrome, Occurrences (all) [2] | Dysphagia, Occurrences (all) [2] | Ear infection, Occurrences (all) [2] | Eye discharge, Occurrences (all) [2] | Feeding disorder of infancy or early childhood, Occurrences (all) [2] | Flatulence, Occurrences (all) [2] | Gamma-glutamyltransferase increased, Occurrences (all) [2] | Gastrointestinal viral infection, Occurrences (all) [2] | Gastrooesophageal reflux disease, Occurrences (all) [2] | Hepatic enzyme increased, Occurrences (all) [2] | Hepatobiliary disorders (Hepatic calcification), Occurrences (all) [2] | Hyperammonaemia, Occurrences (all) [2] | Irritability, Occurrences (all) [2] | Lethargy, Occurrences (all) [2] | Leukocytosis, Occurrences (all) [2] | Lower respiratory tract infection, Occurrences (all) [2] | Lymphocytosis, Occurrences (all) [2] | Medical device site haemorrhage, Occurrences (all) [2] | Microcytic anaemia, Occurrences (all) [2] | Musculoskeletal and connective tissue Disorders (Torticollis), Occurrences (all) [2] | Nephrolithiasis, Occurrences (all) [2] | Neutropenia, Occurrences (all) [2] | Ocular hyperaemia, Occurrences (all) [2] | Oral candidiasis, Occurrences (all) [2] | Oropharyngeal pain, Occurrences (all) [2] | Otitis media acute, Occurrences (all) [2] | Plagiocephaly, Occurrences (all) [2] | Platelet count increased, Occurrences (all) [2] | Pneumothorax, Occurrences (all) [2] | Post-tussive vomiting, Occurrences (all) [2] | Protein deficiency, Occurrences (all) [2] | Red man syndrome, Occurrences (all) [2] | Tachypnoea, Occurrences (all) [2] | Thrombocytopenia, Occurrences (all) [2] | Thrombocytosis, Occurrences (all) [2] | Transaminases increased, Occurrences (all) [2] | Tremor, Occurrences (all) [2] | Use of accessory respiratory muscles, Occurrences (all) [2] | Weight decreased, Occurrences (all) [2] | Respiratory syncytial virus infection, Occurrences (all) (in vivo) | Rhinovirus infection, Occurrences (all) (in vivo)
3: Pyrexia, Occurrences (all) [1] | Teething, Occurrences (all) [1] | Hypophagia, Occurrences (all) [2] | Rash, Occurrences (all) [2]
one: Subjects with TEAE leading to study discontinuation [3] | Subjects with TEAE leading to study discontinuation [4]
0/0: Serious AE Respiratory syncytial virus infection: Occurrences causally related to treatment/all (in vivo)
no subjects: Subjects with serious related TEAEs [3] | Subjects with serious related TEAEs [4]
11 subjects: Subjects with one or more serious TEAE [3]
7: Nasopharyngitis, Occurrences (all) [1] | Upper respiratory tract infection, Occurrences (all) [1]
10 subjects: Subjects with one or more TEAE [4]
2: Metabolic acidosis, Occurrences (all) [1] | Nasal congestion, Occurrences (all) [1] | Oral candidiasis, Occurrences (all) [1] | Oropharyngeal pain, Occurrences (all) [1] | Plagiocephaly, Occurrences (all) [1] | Protein deficiency, Occurrences (all) [1] | Seborrhoeic dermatitis, Occurrences (all) [1] | Thrombocytopenia, Occurrences (all) [1] | Thrombocytosis, Occurrences (all) [1] | Urinary tract infection, Occurrences (all) [1] | Constipation, Occurrences (all) [2] | Cough, Occurrences (all) [2] | Gastroenteritis, Occurrences (all) [2] | Metabolic acidosis, Occurrences (all) [2] | Nasopharyngitis, Occurrences (all) [2] | Otitis media, Occurrences (all) [2] | Pyrexia, Occurrences (all) [2] | Sinusitis, Occurrences (all) [2] | Vascular disorders (Venous thrombosis limb), Occurrences (all) [2]
Four: Subjects with one or more related TEAE [4]
16 subjects: Subjects with one or more TEAE [3]
